Article PMC4412466 (Supramolecular chemistry, 2014)

Tests used:
[1] = Phase solubility diagram of container with excess albendazole; assay type: physicochemical; settings: 50 mM NaOAc buffer, pD 4.74
[2] = cited from earlier work
[3] = Phase solubility diagram of container with excess camptothecin; assay type: physicochemical; settings: 0.01 M DCl, pD 2.0
[4] = Phase solubility diagram of container with excess cinnarizine; assay type: physicochemical; settings: 50 mM NaOAc buffer, pD 4.74

Cucurbit[7]uril [CB[7]]
affinity toward albendazole (slope of phase solubility diagram), CB[7] versus 1 [1]: comparable
solubility in water [2]: 20 to 30 mM
affinity toward camptothecin (slope of phase solubility diagram), CB[7] versus 1 [3]: comparable affinity
maximum [cinnarizine] obtained with container [4]: 13.7 mM
